Reference: publication PMC10999543, “Identification of kinase modulators as host-directed therapeutics against intracellular methicillin-resistant Staphylococcus aureus” (Frontiers in Cellular and Infection Microbiology, 2024)
Like-named read-outs stand apart in the source and are kept apart here.

What was measured:
HeLa cells = experiment: Compound screen by flow cytometry: HeLa cell count as surrogate readout of cell viability (z-scoreHeLa); format: cell-based, human; conditions: for cell count rep 1 / z-scoreHeLa rep 1: replicate 1; for cell count rep 2 / z-scoreHeLa rep 2: replicate 2; for cell count rep 3 / z-scoreHeLa rep 3: replicate 3; for z-scoreHeLa mean: mean of 3 replicates
How it was run: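 HeLa cells were infected with GFP-MRSA (mean MOI 6.8 ± 4.6) for 1 h, and extracellular bacteria were killed with 30 µg/ml gentamicin. Cells were then incubated overnight with kinase inhibitors in 5 µg/ml gentamicin, in triplicate against DMSO controls. Flow-cytometric cell count served as a viability surrogate, expressed as a plate z-score.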

intracellular MRSA = format: cell-based, Staphylococcus aureus; conditions: for %GFP+ rep 1 / z-scoreMRSA+ rep 1: replicate 1; for %GFP+ rep 2 / z-scoreMRSA+ rep 2: replicate 2; for %GFP+ rep 3 / z-scoreMRSA+ rep 3: replicate 3; for z-scoreMRSA+ mean: mean of 3 replicates
How it was run: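 HeLa, MRSA-GFP at MOI ~6.8, 1 h infection; gentamicin 30 µg/ml for 15 min; inhibitor plus gentamicin 5 µg/ml overnight, 37°C/5% CO2; triplicate plates; FACS %GFP+ and cell count; hit = z ≤ -2 MRSA+, z ≥ -3 count.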

[1] = PKIS compound screen raw data, HeLa cell count
[2] = PKIS compound screen, HeLa cell count
[3] = PKIS compound screen, Yes/No call
[4] = PKIS compound screen, Yes/No call on z-scoreHeLa
[5] = PKIS compounds raw data, HeLa cell count
[6] = PKIS compound screen raw data, MRSA-infected HeLa cells
[7] = PKIS compound screen, MRSA-infected HeLa cells
[8] = PKIS compound screen, Yes/No call (effect without cell death)
[9] = PKIS compound screen, Yes/No call on z-scoreMRSA+
[10] = PKIS compounds raw data, MRSA-infected HeLa cells
[11] = compound screen, HeLa cell count
[12] = Yes/No: effect without cell death
[13] = compound screen, MRSA-infected HeLa cells

COc1ccc(S(=O)(=O)NC2CCN(c3cc(C)nc(Nc4cccc(C#N)c4)n3)CC2)cc1 [GSK1653539A]
cell count rep 1 (HeLa cells; [1]): 25166 | cell count rep 2 (HeLa cells; [1]): 21326 | cell count rep 3 (HeLa cells; [1]): 16886 | z-scoreHeLa mean (HeLa cells; [2]): -0.64 | z-scoreHeLa rep 1 (HeLa cells; [2]): -0.85 | z-scoreHeLa rep 2 (HeLa cells; [2]): -0.68 | z-scoreHeLa rep 3 (HeLa cells; [2]): -0.40 | cell death (HeLa cells; [3]): No | cell death (HeLa cells; [4]): No | z-scoreHeLa mean (HeLa cells; PKIS compound screen): 0.33 | z-scoreHeLa rep 1 (HeLa cells; PKIS compound screen): 0.22 | z-scoreHeLa rep 2 (HeLa cells; PKIS compound screen): 0.92 | z-scoreHeLa rep 3 (HeLa cells; PKIS compound screen): -0.16 | cell count rep 1 (HeLa cells; [5]): 6417 | cell count rep 2 (HeLa cells; [5]): 7400 | cell count rep 3 (HeLa cells; [5]): 5350 | %GFP+ rep 1 (intracellular MRSA; [6]): 17.8% | %GFP+ rep 2 (intracellular MRSA; [6]): 20.5% | %GFP+ rep 3 (intracellular MRSA; [6]): 23.1% | z-scoreMRSA+ mean (intracellular MRSA; [7]): 0.18 | z-scoreMRSA+ rep 1 (intracellular MRSA; [7]): -0.26 | z-scoreMRSA+ rep 2 (intracellular MRSA; [7]): 0.30 | z-scoreMRSA+ rep 3 (intracellular MRSA; [7]): 0.51 | effect (intracellular MRSA; [3]): No | hit (intracellular MRSA; [8]): No | effect (intracellular MRSA; [9]): No | z-scoreMRSA+ mean (intracellular MRSA; PKIS compound screen): 0.99 | z-scoreMRSA+ rep 1 (intracellular MRSA; PKIS compound screen): 0.85 | z-scoreMRSA+ rep 2 (intracellular MRSA; PKIS compound screen): 0.68 | z-scoreMRSA+ rep 3 (intracellular MRSA; PKIS compound screen): 1.43 | %GFP+ rep 1 (intracellular MRSA; [10]): 31.4% | %GFP+ rep 2 (intracellular MRSA; [10]): 29.6% | %GFP+ rep 3 (intracellular MRSA; [10]): 35.0%

CC(=O)N1CCN(c2ccc(Nc3nccc(-c4sc(C(C)C)nc4-c4cccc(NS(=O)(=O)c5cccc(Cl)c5)c4)n3)cn2)CC1 [GSK1660437A]
cell count rep 1 (HeLa cells; [1]): 4478 | cell count rep 2 (HeLa cells; [1]): 3506 | cell count rep 3 (HeLa cells; [1]): 4504 | cell death (HeLa cells; Yes/No call from z-scoreHeLa): No | z-scoreHeLa mean (HeLa cells; [11]): -0.33 | z-scoreHeLa rep 1 (HeLa cells; [11]): 0.09 | z-scoreHeLa rep 2 (HeLa cells; [11]): -0.61 | z-scoreHeLa rep 3 (HeLa cells; [11]): -0.46 | %GFP+ rep 1 (intracellular MRSA; [6]): 26.9% | %GFP+ rep 2 (intracellular MRSA; [6]): 24.1% | %GFP+ rep 3 (intracellular MRSA; [6]): 23.6% | effect (intracellular MRSA; Yes/No call from z-scoreMRSA+): No | hit (intracellular MRSA; [12]): No | z-scoreMRSA+ mean (intracellular MRSA; [13]): 0.39 | z-scoreMRSA+ rep 1 (intracellular MRSA; [13]): 0.38 | z-scoreMRSA+ rep 2 (intracellular MRSA; [13]): 0.36 | z-scoreMRSA+ rep 3 (intracellular MRSA; [13]): 0.42

Cc1cc(N2Cc3ccccc3C2)nc(Nc2ccc(S(=O)(=O)N3CCOCC3)cc2)n1 [GSK1669917A]
cell count rep 1 (HeLa cells; [1]): 5559 | cell count rep 2 (HeLa cells; [1]): 4564 | cell count rep 3 (HeLa cells; [1]): 5979 | cell death (HeLa cells; Yes/No call from z-scoreHeLa): No | z-scoreHeLa mean (HeLa cells; [11]): 0.51 | z-scoreHeLa rep 1 (HeLa cells; [11]): 0.87 | z-scoreHeLa rep 2 (HeLa cells; [11]): 0.20 | z-scoreHeLa rep 3 (HeLa cells; [11]): 0.47 | %GFP+ rep 1 (intracellular MRSA; [6]): 24.7% | %GFP+ rep 2 (intracellular MRSA; [6]): 22.0% | %GFP+ rep 3 (intracellular MRSA; [6]): 22.0% | effect (intracellular MRSA; Yes/No call from z-scoreMRSA+): No | hit (intracellular MRSA; [12]): No | z-scoreMRSA+ mean (intracellular MRSA; [13]): -0.11 | z-scoreMRSA+ rep 1 (intracellular MRSA; [13]): -0.13 | z-scoreMRSA+ rep 2 (intracellular MRSA; [13]): -0.15 | z-scoreMRSA+ rep 3 (intracellular MRSA; [13]): -0.06

CN(C)S(=O)(=O)c1cc(-c2ccc3nccc(-c4cccc(S(N)(=O)=O)c4)c3c2)cnc1N [GSK1669921A]
cell death (HeLa cells; [3]): No | z-scoreHeLa mean (HeLa cells; PKIS compound screen): -1.20 | z-scoreHeLa rep 1 (HeLa cells; PKIS compound screen): -1.09 | z-scoreHeLa rep 2 (HeLa cells; PKIS compound screen): -1.39 | z-scoreHeLa rep 3 (HeLa cells; PKIS compound screen): -1.10 | cell count rep 1 (HeLa cells; [5]): 4231 | cell count rep 2 (HeLa cells; [5]): 3906 | cell count rep 3 (HeLa cells; [5]): 3857 | effect (intracellular MRSA; [3]): No | hit (intracellular MRSA; [8]): No | z-scoreMRSA+ mean (intracellular MRSA; PKIS compound screen): -1.31 | z-scoreMRSA+ rep 1 (intracellular MRSA; PKIS compound screen): -1.39 | z-scoreMRSA+ rep 2 (intracellular MRSA; PKIS compound screen): -1.10 | z-scoreMRSA+ rep 3 (intracellular MRSA; PKIS compound screen): -1.42 | %GFP+ rep 1 (intracellular MRSA; [10]): 19.9% | %GFP+ rep 2 (intracellular MRSA; [10]): 20.3% | %GFP+ rep 3 (intracellular MRSA; [10]): 19.6%

CC(C)c1nc(-c2cccc(NS(=O)(=O)c3c(F)cccc3F)c2)c(-c2ccnc(Nc3ccc(N4CCOCC4)nc3)n2)s1 [GSK1723980B]
cell count rep 1 (HeLa cells; [1]): 2167 | cell count rep 2 (HeLa cells; [1]): 1981 | cell count rep 3 (HeLa cells; [1]): 2206 | cell death (HeLa cells; Yes/No call from z-scoreHeLa): No | z-scoreHeLa mean (HeLa cells; [11]): -1.76 | z-scoreHeLa rep 1 (HeLa cells; [11]): -1.58 | z-scoreHeLa rep 2 (HeLa cells; [11]): -1.79 | z-scoreHeLa rep 3 (HeLa cells; [11]): -1.92 | %GFP+ rep 1 (intracellular MRSA; [6]): 10.5% | %GFP+ rep 2 (intracellular MRSA; [6]): 11.7% | %GFP+ rep 3 (intracellular MRSA; [6]): 10.2% | effect (intracellular MRSA; Yes/No call from z-scoreMRSA+): Yes | hit (intracellular MRSA; [12]): Yes | z-scoreMRSA+ mean (intracellular MRSA; [13]): -3.23 | z-scoreMRSA+ rep 1 (intracellular MRSA; [13]): -3.44 | z-scoreMRSA+ rep 2 (intracellular MRSA; [13]): -2.65 | z-scoreMRSA+ rep 3 (intracellular MRSA; [13]): -3.59

CC(C)c1nc(-c2ccc(F)c(NS(=O)(=O)c3c(F)cccc3F)c2)c(-c2ccnc(Nc3ccc(N4CCOCC4)nc3)n2)s1 [GSK1804250A]
cell count rep 1 (HeLa cells; [1]): 20970 | cell count rep 2 (HeLa cells; [1]): 16426 | cell count rep 3 (HeLa cells; [1]): 18426 | z-scoreHeLa mean (HeLa cells; [2]): -1.06 | z-scoreHeLa rep 1 (HeLa cells; [2]): -1.56 | z-scoreHeLa rep 2 (HeLa cells; [2]): -1.52 | z-scoreHeLa rep 3 (HeLa cells; [2]): -0.10 | cell death (HeLa cells; [3]): No | cell death (HeLa cells; [4]): No | z-scoreHeLa mean (HeLa cells; PKIS compound screen): -1.04 | z-scoreHeLa rep 1 (HeLa cells; PKIS compound screen): -1.27 | z-scoreHeLa rep 2 (HeLa cells; PKIS compound screen): -0.95 | z-scoreHeLa rep 3 (HeLa cells; PKIS compound screen): -0.90 | cell count rep 1 (HeLa cells; [5]): 3939 | cell count rep 2 (HeLa cells; [5]): 4582 | cell count rep 3 (HeLa cells; [5]): 4170 | %GFP+ rep 1 (intracellular MRSA; [6]): 10.3% | %GFP+ rep 2 (intracellular MRSA; [6]): 10.8% | %GFP+ rep 3 (intracellular MRSA; [6]): 13.4% | z-scoreMRSA+ mean (intracellular MRSA; [7]): -2.25 | z-scoreMRSA+ rep 1 (intracellular MRSA; [7]): -2.27 | z-scoreMRSA+ rep 2 (intracellular MRSA; [7]): -2.35 | z-scoreMRSA+ rep 3 (intracellular MRSA; [7]): -2.14 | effect (intracellular MRSA; [3]): No | hit (intracellular MRSA; [8]): No and Yes | effect (intracellular MRSA; [9]): Yes | z-scoreMRSA+ mean (intracellular MRSA; PKIS compound screen): -0.36 | z-scoreMRSA+ rep 1 (intracellular MRSA; PKIS compound screen): -0.40 | z-scoreMRSA+ rep 2 (intracellular MRSA; PKIS compound screen): -0.43 | z-scoreMRSA+ rep 3 (intracellular MRSA; PKIS compound screen): -0.25 | %GFP+ rep 1 (intracellular MRSA; [10]): 25.0% | %GFP+ rep 2 (intracellular MRSA; [10]): 23.8% | %GFP+ rep 3 (intracellular MRSA; [10]): 25.9%
